# Assay results reported in ChEMBL document CHEMBL3627608, “Crystal structures of human RIP2 kinase catalytic domain complexed with ATP-competitive inhibitors: Foundations for understanding inhibitor selectivity” (Bioorg Med Chem, 2015).
# What was measured:
# [1] = target: Tyrosine-protein kinase receptor UFO (Homo sapiens) (UniProt P30530); assay: Inhibition of AXL (unknown origin) at 10 uM after 120 mins P33 radiolabeled kinase activity assay
# [2] = target: T1, Serine/threonine-protein kinase Nek11 (Homo sapiens) (UniProt Q8NG66); assay: Inhibition of NEK11 (unknown origin) at 10 uM after 120 mins P33 radiolabeled kinase activity assay
# T1 sequence (whole entry): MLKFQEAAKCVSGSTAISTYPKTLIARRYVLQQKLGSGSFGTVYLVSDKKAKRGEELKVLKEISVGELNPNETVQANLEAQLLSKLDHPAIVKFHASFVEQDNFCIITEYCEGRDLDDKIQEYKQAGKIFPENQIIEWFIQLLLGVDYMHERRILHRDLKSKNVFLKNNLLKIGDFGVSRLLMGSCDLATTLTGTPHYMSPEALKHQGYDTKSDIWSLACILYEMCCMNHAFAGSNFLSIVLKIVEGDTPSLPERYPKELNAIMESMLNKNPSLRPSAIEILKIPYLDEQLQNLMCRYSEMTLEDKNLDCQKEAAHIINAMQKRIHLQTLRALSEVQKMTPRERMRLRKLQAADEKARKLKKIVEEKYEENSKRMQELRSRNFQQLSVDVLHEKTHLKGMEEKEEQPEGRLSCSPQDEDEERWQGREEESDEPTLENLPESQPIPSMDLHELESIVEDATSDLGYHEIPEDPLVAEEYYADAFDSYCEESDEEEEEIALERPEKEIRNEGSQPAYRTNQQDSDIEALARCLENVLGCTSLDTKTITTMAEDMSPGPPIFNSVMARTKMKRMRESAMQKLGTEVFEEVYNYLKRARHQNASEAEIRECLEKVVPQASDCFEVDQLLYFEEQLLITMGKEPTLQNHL
# [3] = target: RAF proto-oncogene serine/threonine-protein kinase (Homo sapiens) (UniProt P04049); assay: Inhibition of RAF1 (unknown origin) at 10 uM after 120 mins P33 radiolabeled kinase activity assay
# [4] = target: Receptor-interacting serine/threonine-protein kinase 2 (Homo sapiens, UniProt O43353); assay: Inhibition of full-length FLAG-6His-TEV tagged human RIP2 expressed in Sf9 cells assessed as dissociation rate by fluorescent polarization assay
# Chain of Receptor-interacting serine/threonine-protein kinase 2 (O43353 whole entry): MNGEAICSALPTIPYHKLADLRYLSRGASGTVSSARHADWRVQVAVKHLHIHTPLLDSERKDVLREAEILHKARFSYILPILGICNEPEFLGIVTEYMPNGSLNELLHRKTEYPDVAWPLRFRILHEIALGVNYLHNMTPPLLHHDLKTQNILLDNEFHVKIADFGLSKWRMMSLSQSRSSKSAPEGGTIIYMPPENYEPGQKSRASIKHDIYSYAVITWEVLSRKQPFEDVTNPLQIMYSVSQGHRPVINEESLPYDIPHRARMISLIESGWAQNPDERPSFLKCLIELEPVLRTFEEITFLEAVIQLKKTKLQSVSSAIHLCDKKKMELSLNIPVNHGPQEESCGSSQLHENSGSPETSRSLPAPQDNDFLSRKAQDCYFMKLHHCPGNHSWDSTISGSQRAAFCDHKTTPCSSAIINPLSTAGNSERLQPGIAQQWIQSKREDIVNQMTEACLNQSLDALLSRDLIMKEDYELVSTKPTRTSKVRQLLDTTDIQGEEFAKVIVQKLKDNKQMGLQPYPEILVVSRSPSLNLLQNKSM
# [5] = target: T2, Dual specificity mitogen-activated protein kinase kinase 3 (Homo sapiens) (UniProt P46734); assay: Inhibition of MEK3 (unknown origin) at 10 uM after 120 mins P33 radiolabeled kinase activity assay
# T2 sequence (whole entry): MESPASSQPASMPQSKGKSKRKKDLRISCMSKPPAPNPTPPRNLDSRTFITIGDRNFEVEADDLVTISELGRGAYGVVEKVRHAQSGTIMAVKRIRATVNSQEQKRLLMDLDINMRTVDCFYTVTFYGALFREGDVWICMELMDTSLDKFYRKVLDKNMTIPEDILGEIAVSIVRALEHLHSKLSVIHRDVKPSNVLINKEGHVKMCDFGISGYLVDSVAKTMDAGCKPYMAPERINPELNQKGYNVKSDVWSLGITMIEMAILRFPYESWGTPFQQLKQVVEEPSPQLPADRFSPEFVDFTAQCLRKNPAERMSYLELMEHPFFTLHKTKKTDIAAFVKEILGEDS
# [6] = target: Calcium/calmodulin-dependent protein kinase type 1G (Homo sapiens) (UniProt Q96NX5); assay: Inhibition of CAMK1gamma (unknown origin) at 10 uM after 120 mins P33 radiolabeled kinase activity assay
# Chain of Calcium/calmodulin-dependent protein kinase type 1G (Homo sapiens) (Q96NX5 whole entry): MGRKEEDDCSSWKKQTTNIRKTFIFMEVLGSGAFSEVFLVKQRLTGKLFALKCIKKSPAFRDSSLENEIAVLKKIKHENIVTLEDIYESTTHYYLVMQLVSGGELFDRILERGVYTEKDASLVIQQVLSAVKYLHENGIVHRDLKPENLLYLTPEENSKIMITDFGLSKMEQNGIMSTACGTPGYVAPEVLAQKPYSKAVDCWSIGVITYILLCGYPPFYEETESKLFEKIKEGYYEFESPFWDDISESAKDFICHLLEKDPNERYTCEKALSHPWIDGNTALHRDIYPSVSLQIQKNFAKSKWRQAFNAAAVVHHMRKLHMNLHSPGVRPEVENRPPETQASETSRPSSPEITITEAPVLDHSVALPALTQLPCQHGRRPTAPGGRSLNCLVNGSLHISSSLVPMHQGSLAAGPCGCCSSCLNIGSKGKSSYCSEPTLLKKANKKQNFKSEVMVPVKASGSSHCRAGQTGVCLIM
# [7] = target: T3, Myosin light chain kinase (Homo sapiens) (UniProt Q32MK0); assay: Inhibition of MYLK3 (unknown origin) at 10 uM after 120 mins P33 radiolabeled kinase activity assay
# T3 sequence (whole entry): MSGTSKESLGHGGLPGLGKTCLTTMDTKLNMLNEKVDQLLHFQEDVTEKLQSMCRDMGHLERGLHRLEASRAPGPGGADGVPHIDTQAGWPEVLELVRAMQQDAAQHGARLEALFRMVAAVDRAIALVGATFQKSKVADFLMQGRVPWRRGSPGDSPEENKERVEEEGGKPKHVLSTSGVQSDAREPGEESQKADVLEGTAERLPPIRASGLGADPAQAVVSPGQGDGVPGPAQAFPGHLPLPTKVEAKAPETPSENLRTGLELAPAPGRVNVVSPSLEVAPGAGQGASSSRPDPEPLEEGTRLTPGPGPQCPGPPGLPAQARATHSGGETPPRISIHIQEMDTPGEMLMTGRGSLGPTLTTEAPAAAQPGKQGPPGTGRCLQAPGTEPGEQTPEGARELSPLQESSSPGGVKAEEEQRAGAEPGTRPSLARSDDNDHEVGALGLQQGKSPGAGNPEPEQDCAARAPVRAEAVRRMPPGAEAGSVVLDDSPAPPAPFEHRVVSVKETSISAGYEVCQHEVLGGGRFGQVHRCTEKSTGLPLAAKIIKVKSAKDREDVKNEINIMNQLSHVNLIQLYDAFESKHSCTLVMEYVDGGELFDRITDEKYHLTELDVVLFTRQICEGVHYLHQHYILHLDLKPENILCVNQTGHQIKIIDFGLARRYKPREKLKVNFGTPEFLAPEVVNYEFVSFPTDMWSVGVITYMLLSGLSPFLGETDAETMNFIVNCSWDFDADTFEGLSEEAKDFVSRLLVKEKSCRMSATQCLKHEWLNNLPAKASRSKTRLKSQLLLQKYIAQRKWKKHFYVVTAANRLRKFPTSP
# [8] = target: Tyrosine-protein kinase FRK (Homo sapiens) (UniProt P42685); assay: Inhibition of FRK (unknown origin) at 10 uM after 120 mins P33 radiolabeled kinase activity assay
# Chain of Tyrosine-protein kinase FRK (Homo sapiens) (P42685 whole entry): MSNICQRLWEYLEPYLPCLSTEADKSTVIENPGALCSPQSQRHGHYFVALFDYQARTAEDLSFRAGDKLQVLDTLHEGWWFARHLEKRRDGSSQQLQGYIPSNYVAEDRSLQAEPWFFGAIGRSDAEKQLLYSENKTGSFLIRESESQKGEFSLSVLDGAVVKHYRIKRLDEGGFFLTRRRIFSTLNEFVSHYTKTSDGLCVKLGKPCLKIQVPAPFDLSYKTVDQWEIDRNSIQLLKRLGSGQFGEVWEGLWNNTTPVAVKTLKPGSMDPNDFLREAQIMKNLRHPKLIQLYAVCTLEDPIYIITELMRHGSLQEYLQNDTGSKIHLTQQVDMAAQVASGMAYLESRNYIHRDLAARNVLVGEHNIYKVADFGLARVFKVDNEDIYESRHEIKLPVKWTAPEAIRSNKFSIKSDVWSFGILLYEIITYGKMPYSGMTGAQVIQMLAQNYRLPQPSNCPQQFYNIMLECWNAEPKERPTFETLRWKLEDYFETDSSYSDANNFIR
# [9] = target: T4, Serine/threonine-protein kinase Nek2 (Homo sapiens) (UniProt P51955); assay: Inhibition of NEK2 (unknown origin) at 10 uM after 120 mins P33 radiolabeled kinase activity assay
# T4 sequence (whole entry): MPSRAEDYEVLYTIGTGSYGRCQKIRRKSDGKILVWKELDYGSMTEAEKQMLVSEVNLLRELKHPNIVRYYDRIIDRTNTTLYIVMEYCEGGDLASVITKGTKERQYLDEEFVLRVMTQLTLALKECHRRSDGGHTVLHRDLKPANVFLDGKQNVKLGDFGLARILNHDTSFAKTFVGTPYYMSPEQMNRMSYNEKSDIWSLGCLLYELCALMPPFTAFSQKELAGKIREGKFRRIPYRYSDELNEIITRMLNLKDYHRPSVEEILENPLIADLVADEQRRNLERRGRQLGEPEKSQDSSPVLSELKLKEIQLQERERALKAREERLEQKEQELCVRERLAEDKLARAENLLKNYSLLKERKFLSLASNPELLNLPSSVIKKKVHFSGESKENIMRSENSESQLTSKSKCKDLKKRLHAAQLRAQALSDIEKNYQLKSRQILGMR
# [10] = target: Fibroblast growth factor receptor 3 (Homo sapiens) (UniProt P22607); assay: Inhibition of FGFR3 (unknown origin) at 10 uM after 120 mins P33 radiolabeled kinase activity assay
# Chain of Fibroblast growth factor receptor 3 (Homo sapiens) (P22607 23-806 limits assumed): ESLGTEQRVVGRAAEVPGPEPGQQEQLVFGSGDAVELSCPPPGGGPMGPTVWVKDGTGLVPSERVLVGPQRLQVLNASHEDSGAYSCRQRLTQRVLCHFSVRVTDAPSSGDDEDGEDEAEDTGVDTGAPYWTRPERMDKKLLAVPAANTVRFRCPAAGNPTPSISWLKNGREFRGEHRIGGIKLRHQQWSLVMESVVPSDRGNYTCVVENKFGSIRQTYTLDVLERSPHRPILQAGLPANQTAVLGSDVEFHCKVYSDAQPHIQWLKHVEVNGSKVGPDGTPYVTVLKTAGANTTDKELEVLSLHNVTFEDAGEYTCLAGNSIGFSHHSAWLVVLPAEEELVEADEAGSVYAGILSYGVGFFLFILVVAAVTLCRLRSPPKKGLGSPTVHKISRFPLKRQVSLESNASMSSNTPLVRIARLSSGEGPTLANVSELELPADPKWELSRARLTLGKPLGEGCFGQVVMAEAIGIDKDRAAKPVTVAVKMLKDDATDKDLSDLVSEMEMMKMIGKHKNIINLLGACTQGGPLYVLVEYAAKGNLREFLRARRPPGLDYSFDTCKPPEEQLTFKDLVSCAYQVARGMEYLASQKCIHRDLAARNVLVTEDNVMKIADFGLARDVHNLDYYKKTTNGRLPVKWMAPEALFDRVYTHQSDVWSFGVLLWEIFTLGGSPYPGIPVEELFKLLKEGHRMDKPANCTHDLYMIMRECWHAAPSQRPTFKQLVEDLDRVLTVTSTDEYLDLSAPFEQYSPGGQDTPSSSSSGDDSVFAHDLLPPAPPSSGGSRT
# [11] = target: Receptor tyrosine-protein kinase erbB-2 (Homo sapiens) (UniProt P04626); assay: Inhibition of ERBB2 (unknown origin) at 10 uM after 120 mins P33 radiolabeled kinase activity assay
# Chain of Receptor tyrosine-protein kinase erbB-2 (Homo sapiens) (P04626 whole entry): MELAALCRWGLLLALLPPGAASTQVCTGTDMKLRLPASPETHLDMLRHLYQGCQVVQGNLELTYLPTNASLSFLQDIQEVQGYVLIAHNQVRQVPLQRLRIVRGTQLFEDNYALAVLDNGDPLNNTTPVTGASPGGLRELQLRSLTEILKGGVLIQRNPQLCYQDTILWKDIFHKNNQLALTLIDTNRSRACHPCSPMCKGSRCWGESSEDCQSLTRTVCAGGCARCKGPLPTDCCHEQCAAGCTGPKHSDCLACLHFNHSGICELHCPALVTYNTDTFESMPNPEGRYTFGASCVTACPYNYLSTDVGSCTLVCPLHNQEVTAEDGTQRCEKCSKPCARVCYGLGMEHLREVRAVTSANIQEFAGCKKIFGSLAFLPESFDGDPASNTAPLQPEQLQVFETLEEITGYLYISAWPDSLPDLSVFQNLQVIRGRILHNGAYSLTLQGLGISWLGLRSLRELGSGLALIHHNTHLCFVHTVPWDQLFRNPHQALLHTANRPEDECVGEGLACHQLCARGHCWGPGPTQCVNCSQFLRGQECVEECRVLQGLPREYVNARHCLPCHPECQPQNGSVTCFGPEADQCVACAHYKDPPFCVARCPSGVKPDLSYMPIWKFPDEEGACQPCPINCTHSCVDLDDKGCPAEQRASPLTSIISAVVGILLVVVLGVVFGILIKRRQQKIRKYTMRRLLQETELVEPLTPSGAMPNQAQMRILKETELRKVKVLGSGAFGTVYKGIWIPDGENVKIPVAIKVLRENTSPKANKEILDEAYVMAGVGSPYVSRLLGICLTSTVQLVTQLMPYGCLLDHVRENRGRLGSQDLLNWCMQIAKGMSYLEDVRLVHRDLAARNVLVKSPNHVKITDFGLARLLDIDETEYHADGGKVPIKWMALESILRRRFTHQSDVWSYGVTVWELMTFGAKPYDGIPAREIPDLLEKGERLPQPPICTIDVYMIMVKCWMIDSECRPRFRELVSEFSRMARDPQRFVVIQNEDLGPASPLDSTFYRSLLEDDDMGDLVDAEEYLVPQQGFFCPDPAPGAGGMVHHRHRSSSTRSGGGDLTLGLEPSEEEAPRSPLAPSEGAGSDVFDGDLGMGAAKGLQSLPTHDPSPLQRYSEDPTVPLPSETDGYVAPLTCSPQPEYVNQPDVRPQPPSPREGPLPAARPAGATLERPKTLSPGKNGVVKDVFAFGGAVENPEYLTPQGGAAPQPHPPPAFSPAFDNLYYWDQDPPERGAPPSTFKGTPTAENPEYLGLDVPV
# Chain of Tyrosine-protein kinase receptor UFO (Homo sapiens) (P30530 whole entry): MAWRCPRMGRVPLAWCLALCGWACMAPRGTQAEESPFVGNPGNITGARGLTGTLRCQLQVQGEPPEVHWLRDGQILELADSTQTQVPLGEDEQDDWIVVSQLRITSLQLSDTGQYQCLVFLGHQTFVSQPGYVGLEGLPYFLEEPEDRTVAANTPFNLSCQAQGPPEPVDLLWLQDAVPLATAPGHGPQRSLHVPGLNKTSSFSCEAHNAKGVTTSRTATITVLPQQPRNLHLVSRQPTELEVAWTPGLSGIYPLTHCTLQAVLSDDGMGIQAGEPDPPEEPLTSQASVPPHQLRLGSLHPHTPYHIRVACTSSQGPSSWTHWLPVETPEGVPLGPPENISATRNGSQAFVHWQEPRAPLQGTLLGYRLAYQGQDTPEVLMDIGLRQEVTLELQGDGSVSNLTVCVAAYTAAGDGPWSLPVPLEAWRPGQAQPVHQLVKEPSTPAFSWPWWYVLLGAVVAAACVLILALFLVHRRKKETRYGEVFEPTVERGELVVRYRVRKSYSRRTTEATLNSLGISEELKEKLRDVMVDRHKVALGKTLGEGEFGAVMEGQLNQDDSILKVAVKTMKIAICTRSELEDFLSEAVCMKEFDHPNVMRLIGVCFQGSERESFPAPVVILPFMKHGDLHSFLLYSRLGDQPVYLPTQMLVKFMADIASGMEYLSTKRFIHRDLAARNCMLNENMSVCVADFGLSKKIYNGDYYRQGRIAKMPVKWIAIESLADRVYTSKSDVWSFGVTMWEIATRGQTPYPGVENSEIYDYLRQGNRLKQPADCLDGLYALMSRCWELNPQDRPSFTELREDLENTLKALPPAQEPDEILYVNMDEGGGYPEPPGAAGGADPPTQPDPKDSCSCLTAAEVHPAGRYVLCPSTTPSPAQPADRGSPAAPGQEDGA
inhibition [1] [%],inhibition [2] [%],inhibition [3] [%],K [4] [s⁻¹],inhibition [5] [%],inhibition [6] [%],inhibition [7] [%],inhibition [8] [%],inhibition [9] [%],inhibition [10] [%],inhibition [11] [%],Structure (SMILES)
82.1,89.4,100,0.000147,21.2,66.6,-2.12,96.9,20.5,51.2,95.3,CS(=O)(=O)c1cccc(Nc2nccc(-c3sc(N4CCOCC4)nc3-c3cccc(NS(=O)(=O)c4c(F)cccc4F)c3)n2)c1
7.68,24.4,41.5,0.12,0.04,8.82,-0.74,54.5,2.45,8.78,2.53,COCCNC(=O)c1ccc2c(c1)nc(-c1cnc(-c3ccc(Cl)cc3)[nH]1)n2CCOC
86.6,24.4,98.8,0.000135,3.51,20.9,-2.01,99,18.6,72.3,-7.24,CC(C)(C)c1cc(NC(=O)Nc2ccc(Oc3ccncc3)cc2)no1
